pIC50: −log10 of the molar value. Where two headings read alike, the source gives them in different places.

One may read the DC50 as the concentration giving 50% degradation. Broadly, the Dmax is the greatest extent of degradation seen.

Holding throughout (type): cell-based
For one experiment, the target named is T1, ER (Homo sapiens, UniProt P03372).
T1 construct: endogenous in cells; host or cells: T47d-kb-Luc (T47D stably transfected with a luciferase reporter gene only)
T1 sequence (P03372 1-595): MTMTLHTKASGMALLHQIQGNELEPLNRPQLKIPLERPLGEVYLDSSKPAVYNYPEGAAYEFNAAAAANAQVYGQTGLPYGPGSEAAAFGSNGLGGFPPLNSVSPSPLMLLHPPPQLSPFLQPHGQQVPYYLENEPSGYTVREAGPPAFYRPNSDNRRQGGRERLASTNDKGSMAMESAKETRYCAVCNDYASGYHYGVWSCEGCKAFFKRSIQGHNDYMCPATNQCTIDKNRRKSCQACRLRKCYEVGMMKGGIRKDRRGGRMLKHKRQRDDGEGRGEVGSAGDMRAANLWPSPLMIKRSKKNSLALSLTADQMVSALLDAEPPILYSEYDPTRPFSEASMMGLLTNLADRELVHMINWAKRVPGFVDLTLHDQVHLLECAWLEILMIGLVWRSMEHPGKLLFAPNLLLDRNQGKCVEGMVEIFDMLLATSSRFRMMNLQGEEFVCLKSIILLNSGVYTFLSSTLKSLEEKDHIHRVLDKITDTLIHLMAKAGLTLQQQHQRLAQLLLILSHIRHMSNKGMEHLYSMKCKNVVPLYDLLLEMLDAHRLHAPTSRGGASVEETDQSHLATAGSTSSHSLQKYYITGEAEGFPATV
Put plainly: ER antagonism (T47D ERE luciferase), T47d-kb-Luc cells. The following applies: read-out: IC50 (ER antagonistm). In short, it runs like this:
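Five sample concentrations, each in quadruplicate and repeated in at least three experiments, were tested for blocking of estradiol activity. Values were expressed relative to the estradiol control. The cell system was the T47d-kb-Luc stable breast cancer line.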

The subject of experiment [1] is MCF-7 breast cancer cells. The experiment in a line: MCF-7 proliferation / cell viability assay. The conditions noted are these: MCF-7 proliferation with 0.1 nM 17-beta estradiol, read-out: IC50 (anti-proliferation). In short, it runs like this:
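Survival ratio, with vehicle (DMSO) as 100%, was derived from Coulter-counted viable cell numbers. Cells were grown in 5% FBS DMEM and dosed for 5 days across six concentrations between 10^−10 M and 10^−5 M.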

A further experiment deals with T2, ERα (Homo sapiens, UniProt P03372).
T2 construct: endogenous in cells; host or cells: MCF-7
T2 sequence (P03372 1-595): T1 sequence (P03372 1-595)
The experiment in a line: ER degradation in MCF-7 cells (Western blot). The conditions noted are these: for DC50: ER degradation, 24 hours. Summed up:
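ERα levels assessed by Western blot (50 μg lysate protein, infrared scanner) after 24-hour exposure of MCF-7 cells to varied compound concentrations. Values reported as DC50, the concentration halving ER expression, and Dmax, the maximal ER reduction achieved across tested concentrations.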
(In general: In western blotting, separated proteins are transferred to a membrane and probed.)

Setting [2] is: MCF7, Maximal ER degradation, read-out: Dmax.

As for `CC/C(=C(/c1ccc(OCCN2CCN(C(=O)N3CCC(N4CCN(c5ccc6c(c5)CN(C5CCC(=O)NC5=O)C6=O)CC4)CC3)CC2)cc1)c1ccc(B(O)O)cc1)c1ccccc1` (stereo not drawn) [Compound 95], the pIC50 is above 8.00 on ER and above 8.00 in experiment [1] (Homo sapiens, MCF7). For the same compound, on ERα, the DC50 is 10 to 50 nM. For the same compound, the Dmax at ERα (setting [2]) was above 90%.
For the compound `CC/C(=C(\c1ccc(OCCN2CCN(C(=O)N3CCC(N4CCN(c5ccc6c(c5)CN(C5CCC(=O)NC5=O)C6=O)CC4)CC3)CC2)cc1)c1ccc(B(O)O)cc1)c1ccccc1` (stereo not drawn) [Compound 96, (E)-(4-(1-(4-(2-(4-(4-(4-(2-(2,6-dioxopiperidin-3-yl)-1-oxoisoindolin-5-yl)piperazin-1-yl)piperidine-1-carbonyl)piperazin-1-yl)ethoxyl)phenyl)-2-phenylbut-1-en-1-yl)phenyl)boronic acid], the pIC50 at ER is above 8.00; in experiment [1] (Homo sapiens, MCF7), above 8.00. The same compound registered a DC50 at ERα of 10 to 50 nM. Also, the Dmax on ERα (setting [2]) was above 90%.
With `CC/C(=C(\c1ccc(O)cc1)c1ccc(N2CCN(C(=O)N3CCN(c4ccc5c(c4)CN(C4CCC(=O)NC4=O)C5=O)CC3)CC2)cc1)c1ccccc1` (stereo not drawn) [Compound 97, (E)-3-(5-(4-(4-(4-(1-(4-hydroxyphenyl)-2-phenylbut-1-en-1-yl)phenyl)piperazine-1-carbonyl)piperazin-1-yl)-1-oxoisoindolin-2-yl)piperidine-2,6-dione], the pIC50 is above 8.00 at ER and 7.30 to 8.00 in experiment [1] (Homo sapiens, MCF7). At ERα, this compound registered a 50% degradation concentration (DC50) of 10 to 50 nM. For the same compound, at ERα (setting [2]), the Dmax was above 90%.
On to `CC/C(=C(\c1ccc(O)cc1)c1ccc(N2CCN(C(=O)N3CCN(c4ccc5c(c4)CN([C@H]4CCC(=O)NC4=O)C5=O)CC3)CC2)cc1)c1ccccc1` [Compound 98], for which the figures for the pIC50 (at ER; in experiment [1]) were above 8.00 and 7.30 to 8.00, respectively. The DC50 at ERα was in the range of 10 to 50 nM. Moreover, the Dmax entry on ERα (Maximal ER degradation) is recorded as “A (A -> 90%)”.
For `CC/C(=C(\c1ccc(O)cc1)c1ccc(N2CCN(C(=O)N3CCN(c4ccc5c(c4)CN([C@@H]4CCC(=O)NC4=O)C5=O)CC3)CC2)cc1)c1ccccc1` [Compound 99, (R,E)-3-(5-(4-(4-(4-(1-(4-hydroxyphenyl)-2-phenylbut-1-en-1-yl)phenyl)piperazine-1-carbonyl)piperazin-1-yl)-1-oxoisoindolin-2-yl)piperidine-2,6-dione], the pIC50 at ER was above 8.00; in experiment [1] (Homo sapiens, MCF7), 7.30 to 8.00. Further, the DC50 on ERα fell in the range of 10 to 50 nM. Also, the Dmax on ERα (setting [2]) is above 90%.
Taken in the same sequence, the figures for `CC/C(=C(/c1ccc(O)cc1)c1ccc(N2CCN(C(=O)N3CCN(c4ccc5c(c4)CN(C4CCC(=O)NC4=O)C5=O)CC3)CC2)cc1)c1ccccc1` (stereo not drawn) [Compound 100] were above 8.00, 7.30 to 8.00, below 10 nM and above 90%.
For the compound `CC/C(=C(/c1ccc(O)cc1)c1ccc(N2CCN(C(=O)N3CCN(c4ccc5c(c4)CN([C@H]4CCC(=O)NC4=O)C5=O)CC3)CC2)cc1)c1ccccc1` [Compound 101, (S,Z)-3-(5-(4-(4-(4-(1-(4-hydroxyphenyl)-2-phenylbut-1-en-1-yl)phenyl)piperazine-1-carbonyl)piperazin-1-yl)-1-oxoisoindolin-2-yl)piperidine-2,6-dione], the pIC50 at ER was above 8.00; in experiment [1] (Homo sapiens, MCF7), 7.30 to 8.00. The DC50 on ERα was below 10 nM. At ERα (setting [2]), the Dmax is above 90%.
On to `CC/C(=C(/c1ccc(O)cc1)c1ccc(N2CCN(C(=O)N3CCN(c4ccc5c(c4)CN([C@@H]4CCC(=O)NC4=O)C5=O)CC3)CC2)cc1)c1ccccc1` [Compound 102, (R,Z)-3-(5-(4-(4-(4-(1-(4-hydroxyphenyl)-2-phenylbut-1-en-1-yl)phenyl)piperazine-1-carbonyl)piperazin-1-yl)-1-oxoisoindolin-2-yl)piperidine-2,6-dione], for which the pIC50 on ER was above 8.00; in experiment [1] (Homo sapiens, MCF7), 7.30 to 8.00. The compound further displayed a DC50 on ERα below 10 nM. Also, the Dmax on ERα (setting [2]) is above 90%.
Turning to `CC/C(=C(\c1ccc(B(O)O)cc1)c1ccc(N2CCN(C(=O)N3CCN(c4ccc5c(c4)CN(C4CCC(=O)NC4=O)C5=O)CC3)CC2)cc1)c1ccccc1` (stereo not drawn) [Compound 103, (Z)-(4-(1-(4-(4-(4-(2-(2,6-dioxopiperidin-3-yl)-1-oxoisoindolin-5-yl)piperazine-1-carbonyl)piperazin-1-yl)phenyl)-2-phenylbut-1-en-1-yl)phenyl)boronic acid], the pIC50 on ER is above 8.00; in experiment [1] (Homo sapiens, MCF7), above 8.00. The DC50 at ERα is below 10 nM. At ERα (setting [2]), the Dmax is above 90%.
For `CC/C(=C(\c1ccc(B(O)O)cc1)c1ccc(N2CCN(C(=O)N3CCN(c4ccc5c(c4)CN([C@H]4CCC(=O)NC4=O)C5=O)CC3)CC2)cc1)c1ccccc1` [Compound 104, (S,Z)-(4-(1-(4-(4-(4-(2-(2,6-dioxopiperidin-3-yl)-1-oxoisoindolin-5-yl)piperazine-1-carbonyl)piperazin-1-yl)phenyl)-2-phenylbut-1-en-1-yl)phenyl)boronic acid], the pIC50 on ER is above 8.00; in experiment [1] (Homo sapiens, MCF7) it was above 8.00. In addition, the DC50 at ERα was below 10 nM. Further, the Dmax on ERα (setting [2]) is above 90%.
On to `CC/C(=C(\c1ccc(B(O)O)cc1)c1ccc(N2CCN(C(=O)N3CCN(c4ccc5c(c4)CN([C@@H]4CCC(=O)NC4=O)C5=O)CC3)CC2)cc1)c1ccccc1` [Compound 105], for which the pIC50 on ER was above 8.00; in experiment [1] (Homo sapiens, MCF7), above 8.00. The compound further yielded a DC50 on ERα below 10 nM. The Dmax on ERα (setting [2]) is above 90%.
For `CC/C(=C(/c1ccc(B(O)O)cc1)c1ccc(N2CCN(C(=O)N3CCN(c4ccc5c(c4)CN(C4CCC(=O)NC4=O)C5=O)CC3)CC2)cc1)c1ccccc1` (stereo not drawn) [Compound 106], the pIC50 at ER is above 8.00; in experiment [1] (Homo sapiens, MCF7), above 8.00. On ERα, this compound yielded a DC50 below 10 nM. Also, the Dmax at ERα (setting [2]) is above 90%.
Turning to `CC/C(=C(/c1ccc(B(O)O)cc1)c1ccc(N2CCN(C(=O)N3CCN(c4ccc5c(c4)CN([C@H]4CCC(=O)NC4=O)C5=O)CC3)CC2)cc1)c1ccccc1` [Compound 107, (S,E)-(4-(1-(4-(4-(4-(2-(2,6-dioxopiperidin-3-yl)-1-oxoisoindolin-5-yl)piperazine-1-carbonyl)piperazin-1-yl)phenyl)-2-phenylbut-1-en-1-yl)phenyl)boronic acid], the pIC50 was above 8.00 on ER and above 8.00 in experiment [1] (Homo sapiens, MCF7). This compound yielded a DC50 at ERα below 10 nM. Further, the Dmax at ERα (setting [2]) was above 90%.
For the compound `CC/C(=C(/c1ccc(B(O)O)cc1)c1ccc(N2CCN(C(=O)N3CCN(c4ccc5c(c4)CN([C@@H]4CCC(=O)NC4=O)C5=O)CC3)CC2)cc1)c1ccccc1` [Compound 108, (R,E)-(4-(1-(4-(4-(4-(2-(2,6-dioxopiperidin-3-yl)-1-oxoisoindolin-5-yl)piperazine-1-carbonyl)piperazin-1-yl)phenyl)-2-phenylbut-1-en-1-yl)phenyl)boronic acid], the pIC50 at ER was above 8.00; in experiment [1] (Homo sapiens, MCF7), above 8.00. The same compound returned a DC50 at ERα below 10 nM. Also, on ERα (setting [2]), the Dmax is above 90%.
Turning to `CC/C(=C(\c1ccc(O)cc1)c1ccc(N2CCN(C(=O)N3CCC(N4CCN(c5ccc6c(c5)CN(C5CCC(=O)NC5=O)C6=O)CC4)CC3)CC2)cc1)c1ccccc1` (stereo not drawn) [Compound 109, (E)-3-(5-(4-(1-(4-(4-(1-(4-hydroxyphenyl)-2-phenylbut-1-en-1-yl)phenyl)piperazine-1-carbonyl)piperidin-4-yl)piperazin-1-yl)-1-oxoisoindolin-2-yl)piperidine-2,6-dione], the pIC50 is above 8.00 at ER and 7.30 to 8.00 in experiment [1] (Homo sapiens, MCF7). Moreover, the DC50 at ERα lay within 10 to 50 nM. Besides, the Dmax on ERα (setting [2]) was above 90%.

Source of the values: patent US20220348595A1, “COMPOUNDS AND METHODS FOR THE TARGETED DEGRADATION OF ESTROGEN RECEPTORS” (Endotarget Inc., priority 2021, published 2022).
